How the values were obtained:
S. aureus [1] = test: Minimal inhibitory concentration of PAR in solution; type: cell-based; conditions: for bacterial growth inhibition by PAR in solution: 1 μM; for times less active than PAR100 or PAR200 chains (from MICs in solution): per chain
Method: Staphylococcus aureus (S. aureus, ATCC 25923) strains were used to assess the antibacterial properties of the test samples. Bacterial strain was cultured aerobically at 37° C. in a Mueller Hinton Broth (MHB) medium (Merck, Germany), pH 7.4. One colony was transferred to 10 mL of MHB medium and incubated at 37° C. for 20 h, to provide a final density of 10^6 CFU·mL^−1. To obtain bacteria in the mid logarithmic phase of growth, the absorbance at 620 nm of overnight culture was adjusted of 0.001.
In the following the inventors of the present invention wanted to further elucidate the underlying mechanism that confer to the coatings of the invention the strong inhibitory property on the surface and in the supernatant. As an example the (PAR30/HA)24 coating was further investigated. Accordingly, the minimal inhibitory concentration (MIC) of PAR in solution was determined using bacterial assay as described in Experimental Section. […] Finally for PAR at concentrations of 0.01 mg·mL^−1, inhibition of 100% was shown only for PAR30. Longer or shorter PAR chains (PAR10, PAR100 or PAR200) inhibits only partially (less than 40%) S. aureus growth. […] This reasoning is valid when PAR concentration values are expressed in mass (mg·mL^−1) thus it is related to the number of arginine monomers. However when the graph is plotted with concentrations in μM (and thus proportional in number of chains), which means that concentration is related to number of chains, different interpretation can be made. […] Moreover the MIC100 values obtained for PAR30, PAR100 or PAR200 ranges at very low concentrations (between 1 and 2 μM) which is remarkable when compared to well-known antimicrobial peptides (for example 30 μM for cateslytin with S. aureus, see Adv. Funct. Mater. 2013, 23, 4801-4809). PAR is thus a powerful candidate to fight against S. aureus.
FIG. 12: Graph with the Minimal inhibitory concentration (MIC100) of soluble PAR with 10, 30, 100 or 200 arginine residues. The Minimal inhibitory concentration (MIC100) leading to 100% inhibition of S. aureus were measured in solution. PAR with 10, 30, 100 or 200 arginine residues were tested.

S. aureus [2] = conditions: Adv. Funct. Mater. 2013, 23, 4801-4809; cited from earlier work
[3] = concentrations up to 0.04 mg·mL−1

poly-L-arginine [PAR100]
bacterial growth inhibition by PAR in solution (S. aureus [1]): totally inhibit
S. aureus growth inhibition by PAR in solution (S. aureus [1]; 0.03 mg·mL−1): total inhibition
S. aureus growth inhibition by PAR in solution (S. aureus [1]; [3]): totally inhibited

poly-L-arginine [PAR10]
S. aureus growth inhibition by PAR in solution (S. aureus [1]; 0.03 mg·mL−1): total inhibition
S. aureus growth inhibition by PAR in solution (S. aureus [1]; [3]): totally inhibited
times less active than PAR100 or PAR200 chains (from MICs in solution) (S. aureus [1]): 10 times

poly-L-arginine [PAR200]
bacterial growth inhibition by PAR in solution (S. aureus [1]): totally inhibit
S. aureus growth inhibition by PAR in solution (S. aureus [1]; 0.03 mg·mL−1): about 45%
S. aureus growth inhibition by PAR in solution (S. aureus [1]; [3]): totally inhibited

poly-L-arginine [PAR30]
S. aureus growth inhibition by PAR in solution (S. aureus [1]; 0.01 mg·mL−1): 100%
S. aureus growth inhibition by PAR in solution (S. aureus [1]; 0.03 mg·mL−1): total inhibition
MIC90 (S. aureus [1]; PAR in solution, S. aureus): about 2 μM
S. aureus growth inhibition by PAR in solution (S. aureus [1]; [3]): totally inhibited
times less active than PAR100 or PAR200 chains (from MICs in solution) (S. aureus [1]): 2 times

cateslytin
MIC with S. aureus (antimicrobial peptide, literature) (S. aureus [2]): 30 µM

Source: patent publication US11471558B2, “Polypeptide and hyaluronic acid coatings” (INSTITUT NATIONAL DE LA SANTE ET DE LA RECHERCHE MEDICALE …, priority 2016, dated 2022)
